In PMC4630399, “Charge-Based Inhibitors of Amylin Fibrillization and Toxicity” (Journal of Diabetes Research, 2015):
Entries after “also recorded” stand apart in the source; their conditions may differ. Positions of bridges follow the written chain, without caps; N, C: chain ends. Residues, ends and D or L forms follow the SMILES beside them.

Columns and labels:
[1] = ThT assay of fibrillization kinetics, peptides alone; type: physicochemical; details: for fibril elongation rate / fibrillization lag time: triplicate
Description: (§1) The time course of fibrillization in solution was monitored using 100–200 μL amylin samples, contained in white polystyrene clear bottom 96-well plates (Corning Inc., Corning, NY). Plates were covered with a clear polyester sealing tape (Fisher Scientific, Agawam, MA) to prevent evaporation. Stock solutions of 1.1 mM WT-amylin and inhibitor peptides were prepared in 100% DMSO, which dissolves and disaggregates amylin fibrils, and were stored at −80°C when not in use. Starting from the 1.1 mM stock solutions in 100% DMSO, samples for fibrillization reactions were prepared to contain 20 μM amylin and 10 μM ultrapure ThT, in 20 mM sodium phosphate buffer, pH 7.4, and a final DMSO concentration of 2% (v/v). For experiments using larger 400 μM concentrations of Arg-2 and Mem-T, the solutions were prepared by diluting 100% DMSO stock solutions of 20 mM peptide to a final DMSO concentration of 2% (v/v). Amylin was the last component added to the samples for the kinetic reactions, in order to reduce the dead time for the experiments. The plates were incubated at 25°C without agitation. Fluorescence intensity was recorded at 2 min intervals with excitation at 440 nm and emission at 490 nm on a Fluoroskan Ascent 2.5 fluorescence plate reader. Fibrillization reactions for the peptides alone were performed in triplicate and for analog-peptide inhibition of WT-amylin in duplicate, to estimate experimental uncertainties in kinetic parameters.

[2] = TEM of aggregates formed by peptides alone; type: physicochemical; details: 80 μM peptide, 2 days, 20 mM phosphate pH 7.4, 37°C, no agitation
Description: (§2) Samples containing 80 μM concentrations of WT-amylin and the three analogs were incubated without agitation at a temperature of 37°C in 20 mM phosphate buffer (pH 7.4). For the inhibition reactions, samples contained WT-amylin at an 80 μM concentration, together with 160 μM of Arg-1, Arg-2, or Mem-T analogs. Aliquots from the reactions were removed after 2 days for TEM imaging. The aliquots were blotted onto carbon-coated 400-mesh Maxtaform copper grids (Ted Pella Inc. Redding, CA) for 1–3 min, followed by negative staining with 1% uranyl acetate. TEM images were recorded on an FEI Tecnai G^2 Spirit BioTwin transmission electron microscope equipped with an AMT XR-40 camera.

[3] = system: WT-amylin cytotoxicity towards MIN6 mouse model of pancreatic β-cells; assay: Protection of MIN6 cells against WT-amylin cytotoxicity (Alamar Blue); details: for protection against WT-amylin cytotoxicity (overall): MIN6 cells, 80 μM WT-amylin, up to 2 : 1 inhibitor : WT-amylin
Description: The stock solutions were diluted with FBS-free DMEM and sonicated continuously for 5 min at 75% amplitude before use. FBS was subsequently added to a concentration of 15% (v/v), giving final amylin concentrations of 40, 80, and 160 μM. The final DMSO concentration for all cytotoxicity experiments was 1% (v/v).
Cytotoxicity was measured using the mouse insulinoma 6 (MIN6) cell line model of β-pancreatic cells, which were a gift from Dr. Anil Rustgi (University of Pennsylvania). Cells were seeded at a density of 20,000 per 100 μL in black clear-bottom 96-well plates. The cells were grown in DMEM with 15% FBS, 25 mM glucose, 2 mM L-glutamine, […] sodium pyruvate, 55 μM β-mercaptoethanol, 1000 units/mL penicillin, and 100 μg/mL streptomycin, for 20 h at 37°C in a humidified incubator with 5% CO2. […] The cells were incubated for another 24 h followed by the addition of 10% (v/v) of the redox indicator dye Alamar Blue at the concentration supplied by the manufacturer (Invitrogen). Fluorescence, due to the reduction of Alamar Blue by viable cells, was measured after 6 h, using excitation and emission wavelengths of 544 and 590 nm, respectively. Cell viability was calculated from the ratio of Alamar Blue fluorescence in treated to untreated cells. Uncertainties were calculated as the SEMs of triplicate measurements.

WT-amylin [4] = target: T1, WT-amylin (Homo sapiens, UniProt P10997); assay: ThT assay, inhibition of WT-amylin fibrillization by analogs added in trans; type: biochemical; set-up: purchased Biopeptide (San Diego, CA); host or cells: solid-phase synthesis; details: for reduction of WT-amylin fibril elongation rate: analog 0.001 to 120 μM; for reduction of WT-amylin elongation rate: Arg-1 between 0 and 200 μM
T1 sequence (P10997 34-70 limits assumed): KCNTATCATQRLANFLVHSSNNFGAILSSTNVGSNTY
Description: as §1, with “Starting from the 1.1 mM stock solutions in 100% DMSO, samples for fibrillization reactions were prepared to contain 20 μM amylin and 10 μM ultrapure ThT, in 20 mM sodium phosphate buffer, pH 7.4, and a final DMSO concentration of 2% (v/v).” left out

WT-amylin [5] = target: T1, WT-amylin; assay: TEM of WT-amylin fibrils formed in presence of inhibitor peptides; type: biochemical; set-up: purchased Biopeptide (San Diego, CA); host or cells: solid-phase synthesis; details: 80 μM WT-amylin with 160 μM analog, 20 mM sodium phosphate pH 7.4, 1% DMSO, 37°C, 24 h
Description: as §2
Figure 8 TEM images of fibrils formed from 80 μM WT amylin in the presence or absence of inhibitor peptides. (a) WT amylin alone, (b) with 160 μM Arg-1, (c) with 160 μM Arg-2, and (d) with 160 μM Mem-T. Aliquots were removed for TEM imaging 24 h after the fibrillization reactions were started. Reactions were carried out in 20 mM sodium phosphate (pH 7.4), 1% DMSO (v/v), at 37°C.

[6] = 20 μM peptide, 150 mM NaCl, pH 7.4, 25°C
[7] = 400 μM peptide, 150 mM NaCl, pH 7.4, 2% DMSO, 25°C, ThT

CC[C@H](C)[C@H](NC(=O)[C@H](C)NC(=O)CNC(=O)[C@H](Cc1ccccc1)NC(=O)[C@H](CC(N)=O)NC(=O)[C@H](CC(N)=O)NC(=O)[C@H](CO)NC(=O)[C@H](CO)NC(=O)[C@H](Cc1c[nH]cn1)NC(=O)[C@H](CC(=O)O)NC(=O)[C@H](CC(=O)O)NC(=O)[C@H](CC(=O)O)NC(=O)[C@H](CC(N)=O)NC(=O)[C@H](C)NC(=O)[C@H](CC(=O)O)NC(=O)[C@H](CCCNC(=N)N)NC(=O)[C@H](CC(=O)O)NC(=O)[C@@H](NC(=O)[C@H](C)NC(=O)[C@@H]1CSSC[C@H](NC(=O)[C@@H](N)CCCCN)C(=O)N[C@@H](CC(N)=O)C(=O)N[C@@H]([C@@H](C)O)C(=O)N[C@@H](C)C(=O)N[C@@H]([C@@H](C)O)C(=O)N1)[C@@H](C)O)C(=O)N[C@@H](CC(C)C)C(=O)N[C@@H](CO)C(=O)N[C@@H](CO)C(=O)N[C@H](C(=O)N[C@@H](CC(N)=O)C(=O)N[C@H](C(=O)NCC(=O)N[C@@H](CO)C(=O)N[C@@H](CC(N)=O)C(=O)N[C@H](C(=O)N[C@@H](Cc1ccc(O)cc1)C(N)=O)[C@@H](C)O)C(C)C)[C@@H](C)O [Mem-T] (H-KCNTATCATDRDANDDDHSSNNFGAILSSTNVGSNTY-NH2; disulfide 2-7 (inferred); N-terminus assumed)
fibrillization detected (ThT) [1, 6]: failed to fibrillize | fibril elongation rate [1, 7]: 6.1 ± 1.4 × 10^−6 min^−1 | fibrillization lag time [1, 7]: 10,000 min | fibrillization detected (ThT) ([1]; 400 μM peptide, absence of salt): only a very weak signal for fibrils was detected | fibrillization detected (ThT) ([1]; 400 μM peptide, pH 7.4, 2% DMSO, 25°C): weak fibrillization | fibrillization detected (ThT) ([1]; 400 μM peptide, physiological salt concentrations and above): Fibrillization was stimulated | aggregate morphology by TEM [2]: only detected amorphous aggregates with nonfibrillar morphologies; also recorded: few if any fibrils | protection against WT-amylin cytotoxicity (overall) [3]: failed to protect against WT-amylin cytotoxicity | reduction in elongation rates relative to arginine-peptides (WT-amylin [4]; 20 μM WT-amylin): only about half of that for the arginine-peptides | effect on WT-amylin fibrillization lag time (WT-amylin [4]; 20 μM WT-amylin, 150 mM NaCl): decrease at high concentrations; also recorded: causes a reduction in lag times at high concentrations of the analog (>10 μM); also recorded: decreases the lag times | reduction of WT-amylin fibril elongation rate (WT-amylin [4]; 20 μM WT-amylin, 150 mM NaCl): 4 fold | salt dependence of inhibition of elongation rate (WT-amylin [4]; 20 μM WT-amylin, varying NaCl): salt effects on elongation rates are reduced close to the uncertainties of the measurements | salt dependence of lag time shortening (WT-amylin [4]; 20 μM WT-amylin, varying NaCl): shows a strong salt concentration dependence | TEM of WT-amylin fibrils formed with inhibitor (WT-amylin [5]): indistinguishable from those formed with WT-amylin alone

CC[C@H](C)[C@H](NC(=O)[C@H](C)NC(=O)CNC(=O)[C@H](Cc1ccccc1)NC(=O)[C@H](CC(N)=O)NC(=O)[C@H](CC(N)=O)NC(=O)[C@H](CO)NC(=O)[C@H](CO)NC(=O)[C@H](Cc1c[nH]cn1)NC(=O)[C@H](CCCNC(=N)N)NC(=O)[C@H](CCCNC(=N)N)NC(=O)[C@H](CCCNC(=N)N)NC(=O)[C@H](CCCNC(=N)N)NC(=O)[C@H](C)NC(=O)[C@H](CC(C)C)NC(=O)[C@H](CCCNC(=N)N)NC(=O)[C@H](CCC(N)=O)NC(=O)[C@@H](NC(=O)[C@H](C)NC(=O)[C@@H]1CSSC[C@H](NC(=O)[C@@H](N)CCCCN)C(=O)N[C@@H](CC(N)=O)C(=O)N[C@@H]([C@@H](C)O)C(=O)N[C@@H](C)C(=O)N[C@@H]([C@@H](C)O)C(=O)N1)[C@@H](C)O)C(=O)N[C@@H](CC(C)C)C(=O)N[C@@H](CO)C(=O)N[C@@H](CO)C(=O)N[C@H](C(=O)N[C@@H](CC(N)=O)C(=O)N[C@H](C(=O)NCC(=O)N[C@@H](CO)C(=O)N[C@@H](CC(N)=O)C(=O)N[C@H](C(=O)N[C@@H](Cc1ccc(O)cc1)C(N)=O)[C@@H](C)O)C(C)C)[C@@H](C)O [Arg-1] (H-KCNTATCATQRLARRRRHSSNNFGAILSSTNVGSNTY-NH2; disulfide 2-7 (inferred); N-terminus assumed)
increase of lag time compared to WT-amylin ([1]; 20 μM peptide, 150 mM NaCl): about 2 fold | reduction of elongation rate compared to WT-amylin ([1]; 20 μM peptide, 150 mM NaCl): about 30% | fibrillization detected (ThT) [1, 6]: detect fibrillization | fibrillization lag time ([1]; 20 μM peptide, 150 mM NaCl, 20 mM sodium phosphate pH 7.4, 10 μM ThT, 2% DMSO, 25°C, no agitation, fluorescence ex 440/em 490 nm): 210 min | fibril elongation rate ([1]; 20 μM peptide, 150 mM NaCl, 20 mM sodium phosphate pH 7.4, 10 μM ThT, 2% DMSO, 25°C, no agitation): 0.0068 min⁻¹ | aggregate morphology by TEM [2]: formed much fewer fibrils; also recorded: formed a larger proportion of short fibrils than WT-amylin; also recorded: fewer fibrils with shorter lengths | protection against WT-amylin cytotoxicity (overall) [3]: protects against WT-amylin cytotoxicity | IC50 ([3]; mouse, 24 h): ~50 µM | effect on WT-amylin fibrillization lag time (WT-amylin [4]; 20 μM WT-amylin, 150 mM NaCl): no effects on the lag times within experimental uncertainty | effect on steady-state fluorescence plateau (WT-amylin [4]; 20 μM WT-amylin, 150 mM NaCl): reduction in the steady-state fluorescence plateaus; also recorded: only observed to decrease with the Arg-1 analog | reduction of WT-amylin fibril elongation rate (WT-amylin [4]; 20 μM WT-amylin, 150 mM NaCl): 8–10 fold | reduction of WT-amylin elongation rate (WT-amylin [4]; 20 μM WT-amylin, 150 mM NaCl): 7 fold | reduction of WT-amylin elongation rate (WT-amylin [4]; 20 μM WT-amylin, absence of salt): 4 fold | effect on WT-amylin lag times, elongation rates and fluorescence plateaus (WT-amylin [4]; 80 μM WT-amylin, increasing Arg-1, 150 mM NaCl): increases in lag times with increasing Arg-1 concentration as well as decreases in elongation rates and steady-state fluorescence plateaus | TEM of WT-amylin fibrils formed with inhibitor (WT-amylin [5]): somewhat fewer fibrils and a greater amount of short fibrils
